Patent US6949571B2, “1,2-dihydropyridine compounds, process for preparation of the same and use thereof” (Eisai Co., Ltd., priority 2000, dated 2005)

Test system: AMPA receptor
Details: Table 2; suppression of AMPA-induced calcium influx into nerve cells
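Also: primary rat embryonic cortical neurons grown on an astrocyte layer in 96-well plates, used after at least 8 to 10 days in culture, Fura2-AM fluorescence ratio at 340/380 nm excitation.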

Row | IC50 [nM] | SMILES
1 | 3400 | CN(C)CCOc1ccc(-c2cc(-c3ccccn3)cn(-c3ccccc3)c2=O)cc1 [Example 248, 3-[4-(Dimethylaminoethoxy)phenyl]-1-phenyl-5-(2-pyridyl)-1,2-dihydropyridin-2-one]
2 | 300 | N#Cc1ccccc1-c1cc(-c2ccccn2)cn(-c2cccc(OCCCCN3CCCCC3)c2)c1=O [Example 249, 3-(2-Cyanophenyl)-1-[3-(4-piperidinobutyl-1-oxy)phenyl]-5-(2-pyridyl)-1,2-dihydropyridin-2-one]
3 | 900 | N#Cc1ccccc1-c1cc(-c2ccccn2)cn(-c2cccc(CN3CCCC3)c2)c1=O [Example 250, 3-(2-Cyanophenyl)-1-[3-(pyrrolidinomethyl)phenyl]-5-(2-pyridyl)-1,2-dihydropyridin-2-one]
4 | 900 | CC(=O)N1CCN(Cc2cccc(-n3cc(-c4ccccn4)cc(-c4ccccc4C#N)c3=O)c2)CC1 [Example 251, 1-[3-[(4-Acetylpiperazino)methyl]phenyl]-3-(2-cyanophenyl)-5-(2-pyridyl)-1,2-dihydropyridin-2-one]
5 | 4700 | O=c1c(-c2cnccn2)cc(-c2ccccn2)cn1-c1ccccc1 [Example 253, 1-Phenyl-3-(2-pyrazyl)-5-(2-pyridyl)-1,2-dihydropyridin-2-one]
6 | 500 | O=c1c(-c2nccs2)cc(-c2ccccn2)cn1-c1ccccc1 [Example 255, 1-Phenyl-5-(2-pyridyl)-3-(2-thiazoyl)-1,2-dihydropyridin-2-one]
7 | 1200 | O=c1c(-c2ccncn2)cc(-c2ccccn2)cn1-c1ccccc1 [Example 256, 1-Phenyl-3-(4-pyrimidinyl)-5-(2-pyridyl)-1,2-dihydropyridin-2-one]
8 | 3700 | O=c1c(-c2cncnc2)cc(-c2ccccn2)cn1-c1ccccc1 [Example 257, 1-Phenyl-3-(5-pyrimidinyl)-5-(2-pyridyl)-1,2-dihydropyridin-2-one]
9 | 2000 | O=c1c(-c2ccnnc2)cc(-c2ccccn2)cn1-c1ccccc1 [Example 259, 1-Phenyl-3-(4-pyridazyl)-5-(2-pyridyl)-1,2-dihydropyridin-2-one]
10 | 2700 | COc1cccc(-c2cc(-c3ccccn3)cn(-c3ccccc3)c2=O)n1 [Example 260, 3-(2-Methoxypyridin-6-yl)-1-phenyl-5-(2-pyridyl)-1,2-dihydropyridin-2-one]
11 | 700 | N#Cc1ncccc1-c1cc(-c2ncccn2)cn(-c2cccnc2)c1=O [Example 265, 3-(2-Cyanopyridin-3-yl)-1-(3-pyridyl)-5-(2-pyrimidinyl)-1,2-dihydropyridin-2-one]
12 | 100 | N#Cc1ccccc1-c1cc(-c2ncccn2)cn(-c2cccc([N+](=O)[O-])c2)c1=O [Example 266, 3-(2-Cyanophenyl)-1-(3-nitrophenyl)-5-(2-pyrimidinyl)-1,2-dihydropyridin-2-one]
13 | 1000 | O=c1c(-c2cscn2)cc(-c2ccccn2)cn1-c1ccccc1 [Example 267, 1-Phenyl-5-(2-pyridyl)-3-(thiazol-4-yl)-1,2-dihydropyridin-2-one]

Second part, the compound before the results:

Row | SMILES | IC50 [nM]
14 | N#Cc1ccccc1-c1cc(-c2ncccc2N)cn(-c2ccccc2)c1=O [Example 216, 5-(3-Aminopyridin-2-yl)-3-(2-cyanophenyl)-1-phenyl-1,2-dihydropyridin-2-one] | 2400
15 | N#Cc1ccccc1-c1cc(-c2ccc(N)cn2)cn(-c2ccccc2)c1=O [Example 217, 5-(5-Aminopyridin-2-yl)-3-(2-cyanophenyl)-1-phenyl-1,2-dihydropyridin-2-one] | 1300
16 | N#Cc1ccccc1-c1cc(-c2ncccn2)cn(-c2cccc(N)c2)c1=O [Example 218, 1-(3-Aminophenyl)-3-(2-cyanophenyl)-5-(2-pyrimidinyl)-1,2-dihydropyridin-2-one] | 100
17 | Nc1ccccc1-c1cc(-c2ccccn2)cn(-c2ccccc2)c1=O [Example 219, 3-(2-Aminophenyl)-1-phenyl-5-(2-pyridyl)-1,2-dihydropyridin-2-one] | 3700
18 | Nc1cccc(-c2cc(-c3ccccn3)cn(-c3ccccc3)c2=O)c1 [Example 220, 3-(3-Aminophenyl)-1-phenyl-5-(2-pyridyl)-1,2-dihydropyridin-2-one] | 600
19 | Nc1ccc(-c2cc(-c3ccccn3)cn(-c3ccccc3)c2=O)cc1 [Example 221, 3-(4-Aminophenyl)-1-phenyl-5-(2-pyridyl)-1,2-dihydropyridin-2-one] | 7100
20 | Cc1ccc(-n2cc(-c3ccccn3)cc(-c3ccccc3C#N)c2=O)cc1N [Example 222, 3-(2-Cyanophenyl)-5-(2-pyridyl)-1-(2-aminotoluen-4-yl)-1,2-dihydropyridin-2-one] | 200
21 | CS(=O)(=O)Nc1ccccc1-c1cc(-c2ccccn2)cn(-c2ccccc2)c1=O [Example 226, 3-[2-(Methylsulfonylamino)phenyl]-1-phenyl-5-(2-pyridyl)-1,2-dihydropyridin-2-one] | 9500
22 | CS(=O)(=O)Nc1ccc(-c2cc(-c3ccccn3)cn(-c3ccccc3)c2=O)cc1 [Example 227, 3-[4-(Methanesulfonylamino)phenyl]-1-phenyl-5-(2-pyridyl)-1,2-dihydropyridin-2-one] | 1800
23 | CS(=O)(=O)Nc1cccc(-c2cc(-c3ccccn3)cn(-c3ccccc3)c2=O)c1 [Example 228, 3-[3-(Methanesulfonylamino)phenyl]-1-phenyl-5-(2-pyridyl)-1,2-dihydropyridin-2-one] | 2700
24 | CC(=O)Nc1cccc(-c2cc(-c3ccccc3C#N)c(=O)n(-c3ccccc3)c2)n1 [Example 229, 5-[(6-Acetylamino)pyridin-2-yl]-3-(2-cyanophenyl)-1-phenyl-1,2-dihydropyridin-2-one] | 4200
25 | CC(=O)Nc1ccccc1-c1cc(-c2ccccn2)cn(-c2ccccc2)c1=O [Example 230, 3-[2-(Acetylamino)phenyl]-1-phenyl-5-(2-pyridyl)-1,2-dihydropyridin-2-one] | 4000
26 | CC(=O)Nc1cccc(-c2cc(-c3ccccn3)cn(-c3ccccc3)c2=O)c1 [Example 232, 3-[3-(Acetylamino)phenyl]-1-phenyl-5-(2-pyridyl)-1,2-dihydropyridin-2-one] | 4300
27 | CN(C)c1ccc(-c2cc(-c3ccccn3)cn(-c3ccccc3)c2=O)cc1 [Example 234, 3-(4-Dimethylaminophenyl)-1-phenyl-5-(2-pyridyl)-1,2-dihydropyridin-2-one] | 900
28 | N#Cc1ccccc1-c1cc(-c2cccc(C(N)=O)n2)cn(-c2ccccc2)c1=O [Example 235, 5-[(6-Aminocarbonyl)pyridin-2-yl]-3-(2-cyanophenyl)-1-phenyl-1,2-dihydropyridin-2-one] | 4400
29 | N#Cc1cccc(-c2cc(-c3ccccc3C#N)c(=O)n(-c3ccccc3)c2)n1 [Example 236, 3-(2-Cyanophenyl)-5-(2-cyanopyridin-6-yl)-1-phenyl-1,2-dihydropyridin-2-one] | 600
30 | O=c1c(-c2cccc(O)c2)cc(-c2ccccn2)cn1-c1ccccc1 [Example 237, 3-(3-Hydroxyphenyl)-1-phenyl-5-(2-pyridyl)-1,2-dihydropyridin-2-one] | 1500
31 | O=c1c(-c2ccc(O)cc2)cc(-c2ccccn2)cn1-c1ccccc1 [Example 238, 3-(4-Hydroxyphenyl)-1-phenyl-5-(2-pyridyl)-1,2-dihydropyridin-2-one] | 600
32 | CN(C)CCOc1cccc(-n2cc(-c3ccccn3)cc(-c3ccccc3C#N)c2=O)c1 [Example 239, 3-(2-Cyanophenyl)-1-[3-(dimethylaminoethoxy)phenyl]-5-(2-pyridyl)-1,2-dihydropyridin-2-one] | 300
33 | N#Cc1ccccc1-c1cc(-c2ccccn2)cn(-c2cccc(OCCN3CCCCC3)c2)c1=O [Example 240, 3-(2-Cyanophenyl)-1-[3-(piperidinoethoxy)phenyl]-5-(2-pyridyl)-1,2-dihydropyridin-2-one] | 100
34 | N#Cc1ccccc1-c1cc(-c2ccccn2)cn(-c2cccc(OCCN3CCCC3)c2)c1=O [Example 241, 3-(2-Cyanophenyl)-1-[3-(pyrrolidinoethoxy)phenyl]-5-(2-pyridyl)-1,2-dihydropyridin-2-one] | 400
35 | CC(C)N(CCOc1cccc(-n2cc(-c3ccccn3)cc(-c3ccccc3C#N)c2=O)c1)C(C)C [Example 242, 3-(2-Cyanophenyl)-1-[3-(diisopropylaminoethoxy)phenyl]-5-(2-pyridyl)-1,2-dihydropyridin-2-one] | 500
36 | CN(C)CCCOc1cccc(-n2cc(-c3ccccn3)cc(-c3ccccc3C#N)c2=O)c1 [Example 243, 3-(2-Cyanophenyl)-1-[3-(dimethylaminopropyloxy)phenyl]-5-(2-pyridyl)-1,2-dihydropyridin-2-one] | 1200
37 | N#Cc1ccccc1-c1cc(-c2ccccn2)cn(-c2cccc(OCCCN3CCCCC3)c2)c1=O [Example 244, 3-(2-Cyanophenyl)-1-[3-(piperidinopropyloxy)phenyl]-5-(2-pyridyl)-1,2-dihydropyridin-2-one] | 1800
38 | N#Cc1ccccc1-c1cc(-c2ccccn2)cn(-c2cccc(OCCN3CCOCC3)c2)c1=O [Example 245, 3-(2-Cyanophenyl)-1-[3-(morpholinoethoxy)phenyl]-5-(2-pyridyl)-1,2-dihydropyridin-2-one] | 1200
39 | CCN(CC)CCOc1cccc(-n2cc(-c3ccccn3)cc(-c3ccccc3C#N)c2=O)c1 [Example 246, 3-(2-Cyanophenyl)-1-[3-(diethylaminoethoxy)phenyl]-5-(2-pyridyl)-1,2-dihydropyridin-2-one] | 1100
40 | CN(C)CCOc1cccc(-c2cc(-c3ccccn3)cn(-c3ccccc3)c2=O)c1 [Example 247, 3-[3-(Dimethylaminoethoxy)phenyl]-1-phenyl-5-(2-pyridyl)-1,2-dihydropyridin-2-one] | 3600
41 | N#Cc1ccccc1-c1cc(-c2ccccn2)cn(-c2ccc([N+](=O)[O-])cc2)c1=O [Example 252, 3-(2-Cyanophenyl)-1-(4-nitrophenyl)-5-(2-pyridyl)-1,2-dihydropyridin-2-one] | 300
42 | O=c1c(-c2cccnc2F)cc(-c2ncccn2)cn1-c1cccnc1 [Example 263, 3-(2-Fuluoropyridin-3-yl)-1-(3-pyridyl)-5-(2-pyrimidinyl)-1,2-dihydropyridin-2-one] | 1000
